“Also recorded” adds a separate entry of the source.
Assay: Dissolution in the aqueous phase (C phase) of the O/W cosmetic composition
Format: physicochemical
Conditions: 5.00 mass % in C phase (aqueous phase) of O/W formulation of Comparative Example 4
From the text: (4) The gel emulsion was mixed with the components of C phase (aqueous phase), thereby preparing an O/W cosmetic composition. […] Hydrophobized fine particle titanium oxide” alone, the sunscreen cosmetic of Comparative Example 3 simultaneously containing “9. Trans-resveratrol aglycone,” which was not a polysaccharide, and “7. […] Since it is generally difficult to apply the formulation that could not be produced in such a small lot experiment to mass production, the production of emulsified cosmetic compositions for use in sunscreen containing trans-resveratrol monosaccharide glycoside turned out to be impractical.

Solubility in the aqueous phase / water solubility (listed as resveratrol monosaccharide glycoside): could not be dissolved uniformly
Structure (SMILES): OC[C@H]1O[C@@H](Oc2cc(O)cc(/C=C/c3ccc(O)cc3)c2)[C@H](O)[C@@H](O)[C@@H]1O [piceid, Piceid]
Solubility in the aqueous phase / water solubility: could not be dissolved; also recorded: insufficient
